Results reported in article PMC5490826 (Viruses, 2017).

Columns and labels:
Type in all cases: binding
[1] = biological target: T1, NS5B Δ21 1b Con1 (Hepatitis C virus (isolate Con1), UniProt Q9WMX2); assay: SPR (Biacore), kinetic two-state model, immobilized enzyme
[2] = biological target: NS5B Δ21 3a (Hepatitis C virus (isolate NZL1), UniProt Q81258); conditions: read-out: Lomibuvir / 3a (±SD); pH 7.4, 25 °C, 10 mM MgCl2, 130 mM NaCl, 3% DMSO; allosteric, thumb II site
[3] = biological target: NS5B Δ21 1b BK (Hepatitis C virus (isolate BK), UniProt P26663); assay: SPR (Biacore), kinetic two-state model, immobilized enzyme
[4] = biological target: T1, NS5B Δ21 1b Con1; assay: differential scanning fluorimetry (SYPRO Orange); conditions: 2 µM protein, 10 µM inhibitor, 50 mM Tris-HCl pH 7.5, up to 2% DMSO; allosteric, palm site; unreliable (text b33 differs from table; not confirmed by SPR)

Chain of NS5B Δ21 1b BK (P26663 2420-2989, stated change not applied): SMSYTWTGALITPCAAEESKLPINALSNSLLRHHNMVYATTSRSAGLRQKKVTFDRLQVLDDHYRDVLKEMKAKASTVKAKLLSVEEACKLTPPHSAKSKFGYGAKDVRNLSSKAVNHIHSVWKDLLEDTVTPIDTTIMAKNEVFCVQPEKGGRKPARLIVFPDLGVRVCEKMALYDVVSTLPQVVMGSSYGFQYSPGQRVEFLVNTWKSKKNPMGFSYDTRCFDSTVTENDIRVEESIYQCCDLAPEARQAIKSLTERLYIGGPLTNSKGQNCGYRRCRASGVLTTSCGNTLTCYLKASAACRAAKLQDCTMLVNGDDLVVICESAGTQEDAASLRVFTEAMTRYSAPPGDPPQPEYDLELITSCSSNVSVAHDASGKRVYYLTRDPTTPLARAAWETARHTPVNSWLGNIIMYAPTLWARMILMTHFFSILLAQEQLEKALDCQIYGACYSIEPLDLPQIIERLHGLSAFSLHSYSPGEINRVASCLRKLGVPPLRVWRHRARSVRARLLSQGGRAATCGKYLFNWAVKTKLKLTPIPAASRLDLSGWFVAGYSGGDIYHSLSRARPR
Chain of NS5B Δ21 3a (Q81258 2431-3000, stated change not applied): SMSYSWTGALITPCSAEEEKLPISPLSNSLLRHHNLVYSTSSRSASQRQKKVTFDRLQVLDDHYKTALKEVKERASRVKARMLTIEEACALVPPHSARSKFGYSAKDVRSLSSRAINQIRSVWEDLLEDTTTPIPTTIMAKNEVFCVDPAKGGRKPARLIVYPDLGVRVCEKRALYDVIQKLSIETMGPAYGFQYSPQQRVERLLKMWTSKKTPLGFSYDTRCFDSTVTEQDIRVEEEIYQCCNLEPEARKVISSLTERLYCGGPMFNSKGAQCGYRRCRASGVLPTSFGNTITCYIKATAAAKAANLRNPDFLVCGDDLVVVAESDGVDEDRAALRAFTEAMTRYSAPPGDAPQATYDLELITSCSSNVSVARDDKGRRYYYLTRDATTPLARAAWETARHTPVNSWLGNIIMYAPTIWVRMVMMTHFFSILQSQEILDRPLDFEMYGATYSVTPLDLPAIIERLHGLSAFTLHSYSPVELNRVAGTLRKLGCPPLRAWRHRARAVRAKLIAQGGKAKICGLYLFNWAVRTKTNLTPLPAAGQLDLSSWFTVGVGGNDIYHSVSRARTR

SMILES	Kd [1]	Kd [2]	Kd [3]	1b Con1 / ΔTm [4]
CC(C)(C)C#Cc1cc(N(C(=O)[C@H]2CC[C@H](C)CC2)[C@H]2CC[C@H](O)CC2)c(C(=O)O)s1 [lomibuvir]	19 ± 7 nM	> 2000 nM	20 ± 0.4 nM	–
CNC(=O)c1c(-c2ccc(F)cc2)oc2cc(N(CCO)S(C)(=O)=O)c(C3CC3)cc12 [nesbuvir]	–	–	–	5 °C
